Measurements taken from PubChem BioAssay (NCI).
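How tested: cells in 96-well plates exposed to compound for 48 hours at five concentrations. TGI: total growth inhibition.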

How the values were obtained:
Test in all cases: inhibition of tumour cell growth, NCI panel, 48 h
[1] = test system: OVCAR-4 ovarian
[2] = test system: HS 578T breast
[3] = test system: MDA-N
[4] = test system: HOP-92 NSCLC
[5] = test system: SF-268 CNS
[6] = test system: 786-0 renal
[7] = test system: SW-620 colon
[8] = test system: SK-MEL-2 melanoma
[9] = test system: SNB-75 CNS
[10] = test system: RXF 393 renal
[11] = test system: SK-MEL-28 melanoma
[12] = test system: HOP-62 NSCLC
[13] = test system: CCRF-CEM leukemia
[14] = test system: A549 NSCLC
[15] = test system: OVCAR-8 ovarian
[16] = test system: MCF7 breast
[17] = test system: HCC-2998 colon
[18] = test system: ACHN renal
[19] = test system: UACC-257 melanoma
[20] = test system: MALME-3M melanoma
[21] = test system: NCI/ADR-RES ovarian
[22] = test system: HCT-116 colon
[23] = test system: M14 melanoma
[24] = test system: NCI-H226 lung
[25] = test system: SNB-19 CNS
[26] = test system: HT29 colon
[27] = test system: OVCAR-5 ovarian
[28] = test system: BT-549 breast
[29] = test system: IGROV1 ovarian
[30] = test system: MDA-MB-435
[31] = test system: SF-539 CNS
[32] = test system: A498 renal
[33] = test system: U251 CNS
[34] = test system: LOX IMVI melanoma
[35] = test system: EKVX NSCLC
[36] = test system: MOLT-4 leukemia
[37] = test system: UO-31 renal
[38] = test system: HL-60(TB) leukemia
[39] = test system: PC-3 prostate
[40] = test system: SK-MEL-5 melanoma
[41] = test system: DU-145 prostate
[42] = test system: SN12C renal
[43] = test system: T-47D breast
[44] = test system: NCI-H460 lung
[45] = test system: NCI-H23 lung
[46] = test system: COLO 205 colon
[47] = test system: SF-295 CNS
[48] = test system: TK-10 renal
[49] = test system: CAKI-1 renal
[50] = test system: MDA-MB-231 breast
[51] = test system: KM12 colon
[52] = test system: NCI-H522 lung
[53] = test system: HCT-15 colon
[54] = test system: SK-OV-3 ovarian
[55] = test system: OVCAR-3 ovarian
[56] = test system: RPMI-8226 leukemia
[57] = test system: K-562 leukemia

O=c1cn[nH]c2nc3ccccc3n12
TGI [1]: > 100 µM
TGI [2]: > 100 µM
TGI [3]: > 100 µM
TGI [4]: > 100 µM
TGI [5]: > 100 µM
TGI [6]: > 100 µM
TGI [7]: > 100 µM
TGI [8]: > 100 µM
TGI [9]: > 100 µM
TGI [10]: > 100 µM
TGI [11]: > 100 µM
TGI [12]: > 100 µM
TGI [13]: > 100 µM
TGI [14]: > 100 µM
TGI [15]: > 100 µM
TGI [16]: > 100 µM
TGI [17]: > 100 µM
TGI [18]: > 100 µM
TGI [19]: > 100 µM
TGI [20]: > 100 µM
TGI [21]: > 100 µM
TGI [22]: > 100 µM
TGI [23]: > 100 µM
TGI [24]: > 100 µM
TGI [25]: > 100 µM
TGI [26]: > 100 µM
TGI [27]: > 100 µM
TGI [28]: > 100 µM
TGI [29]: > 100 µM
TGI [30]: > 100 µM
TGI [31]: > 100 µM
TGI [32]: > 100 µM
TGI [33]: > 100 µM
TGI [34]: > 100 µM
TGI [35]: > 100 µM
TGI [36]: > 100 µM
TGI [37]: > 100 µM
TGI [38]: > 100 µM
TGI [39]: > 100 µM
TGI [40]: > 100 µM
TGI [41]: > 100 µM
TGI [42]: > 100 µM
TGI [43]: > 100 µM
TGI [44]: > 100 µM
TGI [45]: > 100 µM
TGI [46]: > 100 µM
TGI [47]: > 100 µM
TGI [48]: > 100 µM
TGI [49]: > 100 µM
TGI [50]: > 100 µM
TGI [51]: > 100 µM
TGI [52]: > 100 µM
TGI [53]: > 100 µM

C=CC(O)(CBr)CCC(Br)C(C)(C)Cl (stereo not drawn)
TGI [1]: > 10 µM
TGI [2]: > 10 µM
TGI [3]: > 10 µM
TGI [4]: > 10 µM
TGI [5]: > 10 µM
TGI [6]: > 10 µM
TGI [7]: > 10 µM
TGI [54]: > 10 µM
TGI [8]: > 10 µM
TGI [9]: > 10 µM
TGI [10]: > 10 µM
TGI [11]: > 10 µM
TGI [12]: > 10 µM
TGI [13]: > 10 µM
TGI [14]: > 10 µM
TGI [15]: > 10 µM
TGI [55]: > 10 µM
TGI [16]: > 10 µM
TGI [17]: > 10 µM
TGI [18]: > 10 µM
TGI [19]: > 10 µM
TGI [20]: > 10 µM
TGI [21]: > 10 µM
TGI [22]: > 10 µM
TGI [23]: > 10 µM
TGI [24]: > 10 µM
TGI [25]: > 10 µM
TGI [26]: > 10 µM
TGI [27]: > 10 µM
TGI [28]: > 10 µM
TGI [29]: > 10 µM
TGI [30]: > 10 µM
TGI [31]: > 10 µM
TGI [32]: > 10 µM
TGI [33]: > 10 µM
TGI [35]: > 10 µM
TGI [36]: > 10 µM
TGI [37]: > 10 µM
TGI [39]: > 10 µM
TGI [40]: > 10 µM
TGI [41]: > 10 µM
TGI [42]: > 10 µM
TGI [43]: > 10 µM
TGI [56]: > 10 µM
TGI [44]: > 10 µM
TGI [57]: > 10 µM
TGI [45]: > 10 µM
TGI [46]: > 10 µM
TGI [47]: > 10 µM
TGI [48]: > 10 µM
TGI [49]: > 10 µM
TGI [50]: > 10 µM
TGI [51]: > 10 µM
TGI [52]: > 10 µM
TGI [53]: > 10 µM
